The compounds below were run on J774.2 (assay: Cytotoxicity tested against J774.2 cells.). Conditions: Mus musculus, read-out: ED50 (the source's name).
Type: functional

SMILES	EC50
CC(=O)O[C@@]12CO[C@@H]1C[C@@H](O)[C@@]1(C)C(=O)c3[se]cc4c3[C@@](C(C)(C)O)(C[C@@H]4OC(=O)[C@H](O)[C@@H](NC(=O)c3ccccc3)c3ccccc3)[C@@H](OC(=O)c3ccccc3)[C@H]21	900 nM
CC(=O)O[C@H]1C(=O)[C@@]2(C)[C@H]([C@H](OC(=O)c3ccccc3)[C@]3(O)C[C@H](OC(=O)[C@H](O)[C@@H](NC(=O)c4ccccc4)c4ccccc4)C(C)=C1C3(C)C)[C@]1(OC(C)=O)CO[C@@H]1[C@@H]2O	250 nM
CC(=O)O[C@H]1C(=O)[C@@]2(C)[C@H]([C@H](OC(=O)c3ccccc3)[C@]3(O)C[C@H](OC(=O)[C@H](O)[C@@H](NC(=O)c4ccccc4)c4ccccc4)C(C)=C1C3(C)C)[C@]1(OC(C)=O)CO[C@@H]1C[C@@H]2O [PACLITAXEL]	16 nM

From ChEMBL document CHEMBL1150983, “Synthesis of novel taxol analogs and evaluation of their biological activities” (1997)
